Laboratory results: patent publication US8632813B2, “Prostaglandin compositions and methods for the treatment of vasospasm” (Nexmed (Holdings), Inc., priority 2003, dated 2014)

Assays:
[1] = test system: vasospasm, central artery and vein of the ear; assay: Pilot study of 0.4% PGE1 topical composition on adrenaline-induced ear vasospasm (Example 5, FIG. 1-2); assay type: in vivo, New Zealand rabbit; conditions: 1 mg of PGE1 dissolved in 75% aqueous ethanol on skin of right ear
Excerpt: The objects of these pilot studies were designed to explore the efficacy of a specially formulated 0.4 wt % PGE1 topical composition for treating vasospasm and skin disorders that result from insufficient local blood circulation. Twenty four adult New Zealand rabbit, 3-4 kg, were divided into three groups: 12 rabbits were assigned into a Test Study Group; 6 rabbits were assigned into a PGE1 Control Group and 6 rabbits were assigned into an Alcohol Control Group. One rabbit of each Group was selected to enter the study at the same time for each of the first six studies.
The rabbit's right ear was selected to be the test application site, while its left ear was observed as a control. An adrenaline solution (0.2 ml of a 0.1% (1:1000) solution) was injected into the area adjacent to both the central artery and vein near the bottom of both ears. Classic vasospasm appeared five minutes later on both ears. One of three test substances, 125 mg of a 0.4% PGE1 topical composition containing 1.8% DDAIP HCl was applied to a 2 cm×2 cm area of skin adjacent to the central artery and vein of the right ear.
Vasospasm was induced in the same way in both ears of the rabbits of the PGE1 Control Group and the Alcohol Control Group. Similarly, 1 mg of PGE1 dissolved in 75% aqueous ethanol, or the 75% aqueous ethanol vehicle alone were applied to the right ears of the rabbits of the PGE1 Control Group and the Alcohol Control Group respectively. The time course of changes in blood vessel diameter was observed.

[2] = test system: vasospasm induced by adrenaline hydrochloride, femoral artery; assay: Ultrasonography of blood flow volume in surgically exposed femoral artery with adrenaline-induced vasospasm (Example 4); assay type: in vivo, New Zealand Rabbits; conditions: four drops of papaverine (30 mg/ml) on exposed femoral artery; for The Average Time Required To Return To The Initial Blood Flow Volume: 120 minute test
Procedure: Rabbits were obtained and anesthetized as described in Example 2, above. A total of 70 rabbits were randomly assigned into 7 groups with 10 rabbits per group. Blood flow velocity and vascular cross section area were measured and analyzed using a Toshiba Multifunction Ultrasonography 6000 system. A portion of femoral artery about 2 cm long was exposed through a 3 cm incision. […] The entire test was performed under a constant room temperature of 20 degrees Celsius. About ten minutes after the application of adrenaline hydrochloride, the operating field was irrigated with sterile saline topically and dried with sterile pad. […] The incision was closed after the application of the topical composition. The ultrasonic probe was put at a fixed location 1 cm from the incision. […] In general, blood flow volume=blood flow velocity×vascular cross section The data were expressed as average±SD; t-test was used for statistical analysis. The averaged data are reported in Table 9, below, as instantaneous blood flow volume±standard deviation (SD), N=10, and shown graphically in FIG. 6.

Row | Structure (SMILES) | changes of the vascular bed of the right ear [1] | duration of the dilation effect [1] [min] | time after application at which the vasospasm was alleviated slightly [1] [min] | time until vessels of the right ear were dilated [1] [min] | The accumulated blood flow volume from 10 minutes after vasospasm to 120 minutes after drug administration [2] [cm^3] | instantaneous blood flow volume ([2]; 5 min after Drug) [mm^3/s] | instantaneous blood flow volume ([2]; 5 min after Vasospasm (before drug)) [mm^3/s] | instantaneous blood flow volume ([2]; 10 min after Drug) [mm^3/s] | instantaneous blood flow volume ([2]; 10 min after Vasospasm (before drug)) [mm^3/s] | instantaneous blood flow volume ([2]; 15 min after Drug) [mm^3/s] | instantaneous blood flow volume ([2]; 30 min after Drug) [mm^3/s] | instantaneous blood flow volume ([2]; 60 min after Drug) [mm^3/s] | instantaneous blood flow volume ([2]; 90 min after Drug) [mm^3/s] | instantaneous blood flow volume ([2]; 120 min after Drug) [mm^3/s] | The Average Time Required To Return To The Initial Blood Flow Volume [2] [min] | The Average Time Required To Return To The Initial Blood Flow Volume ([2]; listed as papaverine) | instantaneous blood flow volume ([2]; Normal Condition (before drug)) [mm^3/s] | The accumulated blood flow volume from 10 minutes after vasospasm to 120 minutes after drug administration ([2]; listed as papaverine)
1 | CCCCC[C@H](O)/C=C/[C@H]1[C@H](O)CC(=O)[C@@H]1CCCCCCC(=O)O [PGE1 dissolved in 75% aqueous ethanol, Prostaglandin E1] | No significant remaining changes were observed | 60 | 20 | 30 | – | – | – | – | – | – | – | – | – | – | – | – | – | –
2 | COc1ccc(Cc2nccc3cc(OC)c(OC)cc23)cc1OC [Papaverine, papaverine] | – | – | – | – | 2341 ± 94.87 | 319 ± 13.27 | 107 ± 4.11 | 358 ± 13.95 | 86 ± 4.76 | 402 ± 18.44 | 435 ± 17.76 | 296 ± 12.58 | 287 ± 11.96 | 274 ± 10.88 | 5 | produced recovery of blood flow volume | 325 ± 9.80 | a slightly greater effect that was comparable to that produced by composition comprising 80 μg PGE1
